Laboratory results reported in PMC6112376, “Comprehensive Analyses and Prioritization of Tox21 10K Chemicals Affecting Mitochondrial Function by in-Depth Mechanistic Studies” (Environmental Health Perspectives, 2018).
Where two headings read alike, the source gives them in different places.

Legend:
[1] = test system: isolated rat liver mitochondria; experiment: Oxygen consumption, Clark-type oxygen electrode; assay type: biochemical
HepG2 cells [2] = experiment: ROS-Glo hydrogen peroxide (ROS) assay; assay type: cell-based, human; conditions: Homo sapiens, HepG2, 2 h, read-out: ROS (HepG2) EC50
HepG2 cells [3] = experiment: cells; conditions: Homo sapiens
[4] = test system: Caenorhabditis elegans (Bristol N2); experiment: C. elegans larval development and growth assay
rat primary hepatocytes [5] = test system: rat primary hepatocytes
[6] = test system: Caenorhabditis elegans (Bristol N2); conditions: Bristol N2 (wild type), Caenorhabditis elegans, in vivo
[7] = test system: Nrf2/ARE (ARE-bla HepG2 cells); experiment: ARE β-lactamase reporter gene assay; assay type: cell-based, human; conditions: 16 h incubation; mean±SD of three experiments
HepG2 cells [8] = experiment: Intracellular ATP content (cell viability) assay; assay type: cell-based, human; conditions: Homo sapiens, HepG2, 40 h
[9] = test system: Caenorhabditis elegans strain PE255; experiment: In vivo C. elegans ATP status assay; conditions: Caenorhabditis elegans, read-out: LEC LUM: lowest effect concentration for luminescence, a measure of nematode ATP content
HepG2 cells [10] = conditions: read-out: MMP assays IC50 (µM) qHTS-HepG2; cited from earlier work
HepG2 cells [11] = experiment: Oxygen consumption, Seahorse XF24 analyzer; assay type: cell-based, human
[12] = test system: HeLa cells expressing YFP-Parkin; experiment: Parkin translocation assay; assay type: cell-based, human
rat primary hepatocytes [13] = experiment: MMP assay in rat primary hepatocytes; conditions: Rattus norvegicus, Hepatocyte, 1 h
[14] = test system: Caenorhabditis elegans strain PE255; conditions: PE255 [sur-5::luc+::gfp; rol-6(su1006)], Caenorhabditis elegans, in vivo

Structure (SMILES): CCOCn1c(-c2ccc(Cl)cc2)c(C#N)c(Br)c1C(F)(F)F [Chlorfenapyr]
- Potential Mechanism [1]: Uncoupler at low concentrations (0.16-20 µM), and Uncoupler + inhibitor at high concentration (100 µM)
- effect on mitochondrial respiration (in words) [1]: effects similar to those of FCCP
- uncoupler effect at (concentration) in the oxygen consumption assay [1]: 0.16 µM
- I-ADP, % of control (O2 consumption rate) ([1]; 0.032 µM): 99 (43.1) % of control
- I-sub, % of control (O2 consumption rate) ([1]; 0.032 µM): 116 (15.2) % of control
- II-ADP, % of control (O2 consumption rate) ([1]; 0.032 µM): 99 (67.2) % of control
- II-sub, % of control (O2 consumption rate) ([1]; 0.032 µM): 108 (22.5) % of control
- I-ADP, % of control (O2 consumption rate) ([1]; 0.16 µM): 96 (41.8) % of control
- I-sub, % of control (O2 consumption rate) ([1]; 0.16 µM): 131 (17.1) % of control
- II-ADP, % of control (O2 consumption rate) ([1]; 0.16 µM): 112 (75.7) % of control
- II-sub, % of control (O2 consumption rate) ([1]; 0.16 µM): 119 (24.9) % of control
- I-ADP, % of control (O2 consumption rate) ([1]; 0.8 µM): 120 (52.1) % of control
- I-sub, % of control (O2 consumption rate) ([1]; 0.8 µM): 242 (31.7) % of control
- II-ADP, % of control (O2 consumption rate) ([1]; 0.8 µM): 106 (71.8) % of control
- II-sub, % of control (O2 consumption rate) ([1]; 0.8 µM): 180 (37.6) % of control
- I-ADP, % of control (O2 consumption rate) ([1]; 4 µM): 177 (76.8) % of control
- I-sub, % of control (O2 consumption rate) ([1]; 4 µM): 544 (71.3) % of control
- II-ADP, % of control (O2 consumption rate) ([1]; 4 µM): 124 (84.2) % of control
- II-sub, % of control (O2 consumption rate) ([1]; 4 µM): 359 (75.1) % of control
- I-ADP, % of control (O2 consumption rate) ([1]; 20 µM): 91 (39.4) % of control
- I-sub, % of control (O2 consumption rate) ([1]; 20 µM): 324 (42.4) % of control
- II-ADP, % of control (O2 consumption rate) ([1]; 20 µM): 80 (54.0) % of control
- II-sub, % of control (O2 consumption rate) ([1]; 20 µM): 281 (58.7) % of control
- I-ADP, % of control (O2 consumption rate) ([1]; 100 µM): 54 (28.6) % of control
- I-sub, % of control (O2 consumption rate) ([1]; 100 µM): 277 (37.3) % of control
- II-ADP, % of control (O2 consumption rate) ([1]; 100 µM): 35 (23.6) % of control
- II-sub, % of control (O2 consumption rate) ([1]; 100 µM): 139 (30.2) % of control
- EC50 (HepG2 cells [2]): 1.93 µM
- IC50 (HepG2 cells [3]; HepG2, 1 h, read-out: HepG2 IC50 Galactose (MMP)): 1.85 µM
- IC50 (HepG2 cells [3]; HepG2, 1 h, read-out: HepG2 IC50 Glucose (MMP)): 1.67 µM
- IC50 (HepG2 cells [3]; HepG2, read-out: IC50 in HepG2 cells (MMP, tier-one retest)): 0.04 µM
- Emax (HepG2 cells [3]; HepG2, read-out: MMP assays efficacy (%) HepG2): 109%
- larval growth effect at 0.5μM ([4]; 0.5 µM): severe larval growth arrest
- minimal effective concentration ([4]; Caenorhabditis elegans, read-out: LEC EXT: lowest effect concentration for extinction, a measure of nematode size): 0.05 µM
- MMP assays efficacy (%) Rat Hepatocytes (rat primary hepatocytes [5]): -109±23%
- Rat hepatocytes (efficacy) (MMP) (rat primary hepatocytes [5]): 0.34±0.11 ( −90.8±10.1 ) %
- inhibitory effect at (concentration) on larval growth in the C. elegans assay [6]: 0.05 µM
- ARE (HepG2) EC50 [7]: Inactive
- IC50 (HepG2 cells [8]; read-out: ATP (HepG2, galactose) IC50): 7.01 µM
- IC50 (HepG2 cells [8]; read-out: ATP (HepG2, glucose) IC50): 6.41 µM
- minimal effective concentration [9]: 0.25 µM
- IC50 (HepG2 cells [10]): 0.07 ± 0.04 µM
- effect on oxygen consumption rate, Seahorse (in words) (HepG2 cells [11]): effects similar to that of FCCP
- Parkin recruitment [12]: Active
- Parkin translocation into mitochondria (in words) ([12]; 3 h): patterns similar to antimycin A and FCCP
- IC50 (rat primary hepatocytes [13]; read-out: IC50 in rat primary hepatocytes (MMP, tier-one retest)): 0.07 µM
- IC50 (rat primary hepatocytes [13]; read-out: Rat hepatocytes IC50 (MMP)): 0.34 µM
- inhibitory effect at (concentration) on ATP content in the C. elegans assay [14]: 0.25 µM
